For test [1], the target named is T1, hERα LBD (Homo sapiens, UniProt P03372).
T1 construct: hERα LBD (N304-T553: amino acid 304, asparagine, through amino acid 553, threonine); expressed in transfected cells; host or cells: E. coli FW102 OL2-62
Format: cell-based. Particulars: E. coli FW102 OL2-62 pACλCI::RIP140-FLAG pBRαNTD::hERα LBD-FLAG, 20 μM IPTG, 30 minutes incubation. The protocol:
(§1) Afterward, estrogens and EDCs were added at corresponding concentrations, and the cells were further incubated for 30 minutes. Subsequently, 800 μL of the cells were harvested, and resuspended in 800 μL of a buffer solution (60 mM of Na2HPO4, 40 mM of NaH2PO4, 10 mM of KCl, 1 mM of MgSO47H2O, 400 μM of dithiothreitol), followed by measuring OD600 (cell content). Afterward, the cells were lysed by ultrasonication and treated with 160 μL of 4 mg/mL ONPG, and thus a time to change a color of the specimen into yellow was recorded. When the color of the specimen changed to yellow, the reaction was stopped with 400 μL of 1M Na2CO3.

The subject of test [2] is hERα LBD. Particulars: LE7197, lacZ expression in Miller units, with IPTG, 30 minutes incubation. As for the experimental part:
as §1, with “The E. coli FW102 OL2-62 pACλCI::TIF2 BD-FLAG pBRαNTD::hERα LBD-FLAG strain was inoculated, and cultured up to OD600˜ 0.4 (20 μM IPTG added; the inducible substance for inducing expression of λCI-TIF2 BD-FLAG and αNTD-hERα LBD-FLAG). Afterward, estrogens” for “Afterward, estrogens”
Afterward, through β-galactosidase analysis, the expression of a reporter gene, the lacZ gene, was expressed in terms of Miller units.

T1 sequence (P03372 304-553): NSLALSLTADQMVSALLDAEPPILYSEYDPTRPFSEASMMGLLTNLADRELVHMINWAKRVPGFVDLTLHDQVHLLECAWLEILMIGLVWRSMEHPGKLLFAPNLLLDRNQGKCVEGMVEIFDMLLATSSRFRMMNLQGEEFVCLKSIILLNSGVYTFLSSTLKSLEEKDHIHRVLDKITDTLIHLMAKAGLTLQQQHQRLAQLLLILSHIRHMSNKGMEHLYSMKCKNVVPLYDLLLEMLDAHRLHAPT
T1 sequence (P48552 whole entry partner, the tested form may be a part): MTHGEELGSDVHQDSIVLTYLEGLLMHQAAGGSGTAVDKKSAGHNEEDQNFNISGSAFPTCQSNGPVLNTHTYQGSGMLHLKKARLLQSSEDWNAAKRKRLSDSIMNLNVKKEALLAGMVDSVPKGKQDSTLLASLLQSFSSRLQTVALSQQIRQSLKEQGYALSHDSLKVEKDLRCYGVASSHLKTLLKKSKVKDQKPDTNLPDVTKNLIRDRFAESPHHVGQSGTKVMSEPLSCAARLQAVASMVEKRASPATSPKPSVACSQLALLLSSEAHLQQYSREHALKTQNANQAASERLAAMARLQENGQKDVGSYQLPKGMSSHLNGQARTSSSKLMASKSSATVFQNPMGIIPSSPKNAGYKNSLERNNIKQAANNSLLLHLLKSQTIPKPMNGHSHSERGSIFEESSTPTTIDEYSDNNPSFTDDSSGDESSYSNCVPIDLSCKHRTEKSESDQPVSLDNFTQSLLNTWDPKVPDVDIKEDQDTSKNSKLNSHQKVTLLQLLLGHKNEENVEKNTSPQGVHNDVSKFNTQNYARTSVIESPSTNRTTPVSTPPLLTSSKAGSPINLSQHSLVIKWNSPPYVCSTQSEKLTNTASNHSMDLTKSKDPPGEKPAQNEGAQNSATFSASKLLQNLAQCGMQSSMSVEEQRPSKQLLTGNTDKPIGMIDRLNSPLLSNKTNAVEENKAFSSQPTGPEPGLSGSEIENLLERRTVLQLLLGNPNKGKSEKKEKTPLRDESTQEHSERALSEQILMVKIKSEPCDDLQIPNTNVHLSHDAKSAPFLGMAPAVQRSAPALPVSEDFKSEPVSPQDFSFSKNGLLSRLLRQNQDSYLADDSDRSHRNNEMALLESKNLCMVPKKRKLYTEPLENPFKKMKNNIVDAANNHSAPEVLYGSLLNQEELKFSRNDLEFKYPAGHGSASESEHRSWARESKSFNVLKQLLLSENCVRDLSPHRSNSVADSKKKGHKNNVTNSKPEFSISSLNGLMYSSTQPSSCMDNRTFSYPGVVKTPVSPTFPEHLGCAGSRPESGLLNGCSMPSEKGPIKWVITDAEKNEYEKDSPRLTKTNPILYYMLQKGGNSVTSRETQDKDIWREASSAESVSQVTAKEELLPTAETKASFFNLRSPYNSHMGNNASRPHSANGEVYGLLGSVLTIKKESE
T1 sequence (P0A7Z4 1-248 partner limits assumed): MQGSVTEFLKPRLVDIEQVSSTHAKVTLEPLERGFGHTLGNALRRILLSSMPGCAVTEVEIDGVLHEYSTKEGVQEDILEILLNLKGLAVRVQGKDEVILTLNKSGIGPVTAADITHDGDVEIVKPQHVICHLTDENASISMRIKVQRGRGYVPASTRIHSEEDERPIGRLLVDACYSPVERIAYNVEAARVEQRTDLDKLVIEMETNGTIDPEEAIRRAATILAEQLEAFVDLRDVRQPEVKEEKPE
T1 sequence (P03034 whole entry partner, the tested form may be a part): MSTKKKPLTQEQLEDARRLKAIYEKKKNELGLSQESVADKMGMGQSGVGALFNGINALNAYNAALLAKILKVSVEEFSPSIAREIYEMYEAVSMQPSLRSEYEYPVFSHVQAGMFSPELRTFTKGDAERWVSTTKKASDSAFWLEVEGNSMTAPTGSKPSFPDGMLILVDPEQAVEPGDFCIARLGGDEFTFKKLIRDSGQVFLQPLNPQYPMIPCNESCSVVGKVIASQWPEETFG

Turning to nonylphenol, the “Miller units as a function of compound concentration in the specimen” value on hERα LBD [1] is “the higher the Miller units”. In addition, the “concentration that can be sensed/detected by sensor strain” value in the test on hERα LBD [2] is “approximately 100 nM”.
As for `O=S(=O)(c1ccc(O)cc1)c1ccc(O)cc1` [bisphenol S], the “concentration that can be sensed/detected by sensor strain” value in the test on hERα LBD [2] is reported as “several hundred”.
For `CC(C)(c1ccc(O)cc1)c1ccc(O)cc1` [bisphenol A], at hERα LBD [1], the “Miller units as a function of compound concentration in the specimen” value was “the higher the Miller units”.
Regarding `Oc1ccc(Cc2ccc(O)cc2)cc1` [bisphenol F], in the test with hERα LBD [2], the “concentration that can be sensed/detected by sensor strain” value is “several hundred”.

The values are drawn from patent US11591632B2, “Genetically-mutated bacterial strain for detecting estrogenic compound and method for detecting estrogenic compound using the same” (INDUSTRY-UNIVERSITY COOPERATION FOUNDATION HANYANG …, priority 2016, dated 2023).
